Key:
AD38 cells = test: Viability of AD38 cells (Promega CellTiter-Glo); format: cell-based; details: 10 μM compound, 6 days, CellTiter-Glo luminescence normalized to DMSO control (100%)
Procedure: (§1) Example 2: Assay Measuring Activity of Compounds on Viral Production in and on Viability of AD38 Cells
(§2) AD38 cells were then re-suspended with 10 mL of Treatment Medium and counted. Wells of a collagen coated 96-well NUNC microtiter plate were seeded at 50,000/well in 180 μL of Treatment Medium, and 20 μL of in treatment media with either 10% DMSO (Control) or a 10× solution of compound in 10% DMSO was added. Plates were incubated for 6 days at 37° C.
At the end of compound treatment period cell viability was assessed using a Promega CellTiter-Glo protocol. All supernatant was removed the previously treated 96-well microtiter plate, and 50 μL Tetracycline-free treatment medium (DMEM/F12 (1:1), 1× Pen/step (cat #: 30-002-CL, Mediatech, Inc), with 2% FBS, Tet-system approved (cat #: 631106, Clontech), and 1% DMSO was added back to each well. Another 50 μL of CellTiter-Glo reagent solution (Promega, G7573) was then added at room temperature and the contents mixed for 2 minutes on an orbital shaker to induce cell lysis. This was followed by incubation at room temperature for 10 minutes to stabilize the luminescent signal. The luminescence was recorded for 0.2 seconds per well on a Tecan multimode plate reader (Infinite M1000 pro). The luminescent signal from each well was normalized against that of untreated (DMSO) control wells. All results were reported percent viability (with controls being 100%).

[1] = test system: HBV viral load in AD38 cells; test: Viral load production in AD38 cells, quantitative PCR of the core sequence in supernatant; format: cell-based; details: 10 μM compound, 6 days at 37° C., supernatant qPCR, relative to DMSO control; for activity at 10 µM: Hepatitis B virus, 144 h, read-out: AD38 Viral Load (%) (VL with cmpd/VL in DMSO control) at 10 μM
Procedure: as §1, §2
Viral load production was assayed by quantitative PCR of the core sequence. […] The PCR mixture was incubated at 45° C. for 5 minutes, then 95° C. for 10 min, followed by 40 cycles of 10 seconds at 95° C. and 20 seconds at 60° C. Viral load was quantitated against known standards by using ViiA™ 7 Software. Viral load in the supernatant from wells with treated cells were compared against viral load in supernatant from DMSO control wells (>3 per plate).

Row | SMILES | AD38 Viability Normalized Result (cmpd/DMSO %) at 10 μM (AD38 cells) | activity at 10 µM [1] | AD38 Viral Load (%) (VL with cmpd/VL in DMSO control) at 10 μM [1]
1 | O=C(O)CSc1ncc(CNC(=O)c2ccc3c(c2)NC(=O)c2ccccc2O3)s1 [compound 1616, 2-((5-((11-oxo-10, 11-dihydrodibenzo [b, f] [1, 4]oxazepine-8-carboxamido)methyl)thiazol-2-yl)thio) acetic acid] | 103% | 105% | –
2 | CC(C)(C)c1ncc(CNC(=O)c2ccc3c(c2)NC(=O)c2ccccc2S3(=O)=O)s1 [compound 1550] | 96% | 4% | –
3 | O=C(O)CSc1ncc(CNC(=O)c2ccc3c(c2)NC(=O)c2ccccc2S3(=O)=O)s1 [compound 1589, 2-((5-((5,5-dioxido-11-oxo-10, 11-dihydrodibenzo [b, f] [1, 4]thiazepine-8-carboxamido)methyl)thiazol-2-yl)thio) acetic acid] | 98% | 80% | –
4 | CN(C)CCSc1ncc(CNC(=O)c2ccc3c(c2)NC(=O)c2ccccc2O3)s1 [compound 1617] | 101% | 2.2% | –
5 | O=C(NCc1cnc(-c2cnco2)s1)c1ccc2c(c1)NC(=O)c1ccccc1S2(=O)=O [compound 1957] | 94% | 1.5% | –
6 | Cc1c(C(=O)NCc2cnc(-c3ccc(O)cc3)s2)ccc2c1NC(=O)c1ccccc1S2(=O)=O [compound 1768] | 94% | 0.4% | –
7 | CN(C)CCOc1ncc(CNC(=O)c2ccc3c(c2)NC(=O)c2ccccc2O3)s1 [compound 1614, N-((2-(2-(dimethylamino)ethoxy)thiazol-5-yl)methyl)-11-oxo-10, 11-dihydrodibenzo [b, f] [1, 4] oxazepine-8-carboxamide] | 98% | 8.5% | –
8 | CC(C)(C)OC(=O)N1CCC[C@@H]1COc1ccc(-c2ncc(CNC(=O)c3ccc4c(c3)NC(=O)c3ccccc3S4(=O)=O)s2)cc1 [11104-A, tert-butyl (R)-2-((4-(5-((5,5-dioxido-11-oxo-10, 11-dihydrodibenzo [b, f] [1, 4]thiazepine-8-carboxamido)methyl)thiazol-2-yl)phenoxy)methyl) pyrrolidine-1-carboxylate] | 74% | 0.9% | –
9 | COC(=O)C1CCN(CCCOc2ccc(-c3ncc(CNC(=O)c4ccc5c(c4)NC(=O)c4ccccc4S5(=O)=O)s3)cc2)C1 (stereo not shown) [11107-A, methyl 1-(3-(4-(5-((5,5-dioxido-11-oxo-10, 11-dihydrodibenzo [b, f] [1, 4]thiazepine-8-carboxamido)methyl)thiazol-2-yl)phenoxy)propyl) pyrrolidine-3-carboxylate] | 100% | – | 7.7%
10 | Cc1c(C(=O)NCc2cnc(C(F)(F)F)s2)ccc2c1NC(=O)c1ccccc1S2 [compound 1766] | 98% | 1.3% | –
11 | CC(C)N(C)CCCCc1ccc(-c2ncc(CNC(=O)c3ccc4c(c3)NC(=O)c3ccccc3S4(=O)=O)s2)cc1 [compound 11093] | 102% | 4.6% | –
12 | O=C(NCc1cnc(-c2ccc(S(=O)(=O)CCCO)cc2)s1)c1ccc2c(c1)NC(=O)c1ccccc1S2(=O)=O [11063-B, N-((2-(4-((3-hydroxypropyl)sulfonyl)phenyl)thiazol-5-yl)methyl)-11-oxo-10, 11-dihydrodibenzo [b, f] [1, 4] thiazepine-8-carboxamide 5,5-dioxide] | 95% | 5.4% | –
13 | O=C(NCc1nccs1)c1ccc2c(c1)NC(=O)c1ccccc1S2(=O)=O [compound 1650] | 82% | 58.8% | –
14 | Cl.NCCc1ccccc1-c1ncc(CNC(=O)c2ccc3c(c2)NC(=O)c2ccccc2S3(=O)=O)s1 [compound 1842, N-((2-(2-(2-aminoethyl)phenyl)thiazol-5-yl)methyl)-11-oxo-10, 11-dihydrodibenzo [b, f] [1, 4] thiazepine-8-carboxamide 5,5-dioxide hydrochloride] | 109% | 46.5% | –
15 | CCN1c2ccc(C(=O)NCc3cnc(-c4ccc(O)cc4)s3)cc2NC(=O)c2ccccc21 [compound 1751] | 18% | 2.8% | –
16 | N#Cc1ccc(-c2ncc(CNC(=O)c3ccc4c(c3)NC(=O)c3ccccc3S4(=O)=O)s2)cc1F [compound 1815] | 88% | 0.2% | –
17 | O=C(NCc1cnc(-c2ccc(OCCCN3CCOCC3)cc2)s1)c1ccc2c(c1)NC(=O)c1ccccc1S2(=O)=O [compound 1993] | 96% | 0.5% | –
18 | Cl.O=C(NCc1cnc(-c2ccc(OC[C@H]3CCNC3)cc2)s1)c1ccc2c(c1)NC(=O)c1ccccc1S2(=O)=O [compound 11139, (S)-11-oxo-N-((2-(4-(pyrrolidin-3-ylmethoxy)phenyl)thiazol-5-yl)methyl)-10, 11-dihydrodibenzo [b, f] [1, 4] thiazepine-8-carboxamide 5,5-dioxide hydrochloride] | 104% | 5.5% | –
19 | O=C(NCc1cnc(-c2cncnc2)s1)c1ccc2c(c1)NC(=O)c1ccccc1S2(=O)=O [compound 1626] | 99% | 2.7% | –
20 | CCN(CC)CCCCc1ccc(-c2ncc(CNC(=O)c3ccc4c(c3)NC(=O)c3ccccc3S4(=O)=O)s2)cc1 [compound 11053] | 104% | 3.6% | –
21 | O=C(NCc1scnc1C(F)(F)F)c1ccc2c(c1)NC(=O)c1ccccc1S2 [compound 1431] | 103% | 5.5% | –
22 | O=C(NCc1cnc(-c2ccc(F)cn2)s1)c1ccc2c(c1)NC(=O)c1ccccc1S2(=O)=O [compound 11040] | 104% | 1.9% | –
23 | Nc1ccc(-c2ncc(CNC(=O)c3ccc4c(c3)NC(=O)c3ccccc3S4(=O)=O)s2)nc1 [compound 1886, N-((2-(5-aminopyridin-2-yl)thiazol-5-yl)methyl)-11-oxo-10, 11-dihydrodibenzo [b, f] [1, 4] thiazepine-8-carboxamide 5,5-dioxide] | 106% | 1.5% | –
24 | CN1c2ccc(C(=O)NCc3cnc(-c4ccc(O)cc4)s3)cc2NC(=O)c2ccccc21 [compound 1732] | 100% | 18.8% | –
25 | O=C(NCc1cnc(Cc2ccc(O)cc2)s1)c1ccc2c(c1)NC(=O)c1ccccc1O2 [compound 1835, N-((2-(4-hydroxybenzyl)thiazol-5-yl)methyl)-11-oxo-10, 11-dihydrodibenzo [b, f] [1, 4] oxazepine-8-carboxamide] | 94% | 12.3% | –
26 | CN(C)CCSc1ncc(CNC(=O)c2ccc3c(c2)NC(=O)c2ccccc2S3(=O)=O)s1 [compound 1590] | 95% | 6.2% | –
27 | O=C(NCc1cnc(-c2cncs2)s1)c1ccc2c(c1)NC(=O)c1ccccc1S2(=O)=O [compound 1956] | 88% | 2.3% | –
28 | O=C(NCc1cnc(-c2ccc(-c3cc[nH]n3)cc2)s1)c1ccc2c(c1)NC(=O)c1ccccc1S2(=O)=O [compound 1953] | 118% | 0.4% | –
29 | CC(CCN(C)C)Oc1ccc(-c2ncc(CNC(=O)c3ccc4c(c3)NC(=O)c3ccccc3S4(=O)=O)s2)cc1 (stereo not shown) [compound 11080] | 84% | 1.4% | –
